# Measurements published in patent US10618907B2, “Cell-permeable, cell-compatible, and cleavable linkers for covalent tethering of functional elements” (Promega Corporation, priority 2015, dated 2020).
# “Also recorded” adds a separate entry of the source.
# Columns and labels:
# HALOTAG protein [1] = conditions: 1 μM conjugate, up to 60 min, lysate of cells expressing HALOTAG fusion
# Method: The 4 BIRB* conjugates were compared for binding kinetics to a HALOTAG protein in a cell lysate or inside live cells. Binding kinetics to HALOTAG in lysate was measured by adding the BIRB*-chloroalkane conjugates to a lysate prepared from cells expressing a HALOTAG fusion protein at a final concentration of 1 μM. After 0-60 minutes incubation, a fraction of each reaction taken at different time points (each containing a different BIRB* conjugate) was removed, HALGOTAG TMR-fluorescent ligand (Promega Corporation) was added to a final concentration of 1 μM and allowed to bind to the HALOTAG protein (which remained unbound). The time point fractions were resolved on SDS-PAGE and scanned on a Typhoon 9400 fluorescent imager (GE Healthcare). Bands were quantitated using IMAGEQUANT (GE Healthcare), and binding kinetics were determined as the percent binding with time relative to time zero when no chloroalkylated compound was added.
# Binding kinetics to HALOTAG in lysate (FIG. 23A) was measured by treating a lysate prepared from cells, expressing a HALOTAG fusion protein, with the Ibrutinib chloroalkane conjugates at a final concentration of 1 μM for up 60 minutes. After a specified incubation time, an aliquot was removed and treated with HALOTAG TMR-fluorescent ligand (Promega Corporation) at a final concentration of 1 μM to label the remaining unbound HALOTAG fusion protein. The aliquots were resolved on SDS-PAGE and scanned on a Typhoon 9400 fluorescent imager (GE Healthcare). Bands were quantitated using IMAGEQUANT (GE Healthcare), and binding kinetics was determined as the percent binding over time relative to time zero when no chloroalkane-tagged compound added.
# Binding kinetics to HALOTAG in lysate (FIG. 31A) were measured by treating a lysate prepared from cells expressing a HALOTAG fusion protein with the BIRB796 chloroalkane conjugates at a final concentration of 1 μM for up to 60 minutes. After a specified incubation time, an aliquot was removed and treated with HALOTAG TMR-fluorescent ligand (Promega Corporation) at a final concentration of 1 μM to label the remaining unbound HALOTAG fusion protein. The aliquots were resolved on SDS-PAGE and scanned on a Typhoon 9400 fluorescent imager (GE Healthcare). Bands were quantitated using IMAGEQUANT (GE Healthcare), and binding kinetics was determined as the percent binding over time relative to time zero where no chloroalkane-tagged compound was added.
# BTK:NLuc fusion [2] = biological target: T1, BTK:NLuc fusion (Homo sapiens, UniProt Q06187); test: Capture efficiency of BTK:NLuc fusion onto HALOTAG coated magnetic beads; assay type: binding; conditions: cell lysate, 1 μM conjugate, 2 hour
# T1 construct: expressed in transfected cells
# Method: To interrogate capture efficiency of an interacting cellular target, a known target of Ibrutinib, BTK, was genetically fused to NANOLUC (NLuc) luciferase reporter (Promega Corporation). Since Ibrutinib is a covalent inhibitor of BKT, a TEV recognition site was incorporated between BTK and NLuc to allow proteolytic release of NLuc from the beads. Following a 2 hour treatment of cell lysate (from cells expressing the BTK:NLuc fusion) with 1 μM Ibrutinib chloroalkane conjugates (final concentration), the Ibrutinib chloroalkane conjugates, and their interacting BTK:NLuc target, were captured onto HALOTAG coated magnetic beads (Promega Corporation). Capture efficiency was determined as the percent of lost in bioluminescence in the unbound fractions relative to the untreated cell lysate.
# BTK:NLuc fusion [3] = biological target: T1, BTK:NLuc fusion; test: Release of captured BTK:NLuc from HALOTAG beads by TEV or palladium-catalyzed cleavage, western; conditions: anti-NLuc antibody
# Method: To interrogate the efficiency of palladium-catalyzed cleavage of these linkers, the release of BTK:NLuc fusion covalently captured onto the HALOTAG beads was determined by two methods: i) TEV proteolytic cleavage and ii) palladium-catalyzed cleavage (FIG.
# 24B). TEV proteolytic cleavage of the fusion would lead to the release of NLuc while palladium catalyzed cleavage of the allyl carbamate group within the chloroalkane linker would result with the release of BTK:NLuc.
# [4] = test system: TNFα secretion in LPS stimulated THP-1 cells; test: Inhibition of TNFα secretion in LPS stimulated THP-1 cells (ELISA); assay type: cell-based, human; conditions: 2 h compound, LPS 250 ng/ml 24 h
# Method: Bioactivity was measured through inhibition of TNFα secretion in LPS stimulated THP-1 cells (FIGS. 8A-8C). THP-1 cells were plated into wells of 96-well plates at 100,000 cells/well, treated with serial dilutions of BIRB796 conjugates for 2 hours, and then stimulated for 24 hours with LPS (Sigma) at final concentration of 250 ng/ml. The supernatant was analyzed for human TNFα secretion by ELISA (R&D Systems). […] Thus, it imposes minimal impact on the chloroalkane features.
# Inhibition of mitogen-activated protein kinases (MAPK) by BIRB796 reduces production of proinflammatory cytokines such as TNFα. Influence of the linkers on BIRB796 potency was tested by comparing the BIRB796 conjugates for inhibition of TNFα secretion from LPS-stimulated THP-1 cells (FIG. 32). THP-1 cells were plated in 96-well plates at 100,000 cells/well, treated with serial dilutions of BIRB796 (Cayman Chemical) and BIRB796-chloroalkane conjugates for 2 h, and then stimulated with LPS (Sigma) at final concentration of 250 ng mL−1 for 24 h. Supernatants were analyzed for human TNFα secretion by ELISA (R&D systems). Results indicates inverse correlation between the length of the cleavable chloroalkane linker and its influence on BIRB796 potency.
# HALOTAG protein [5] = conditions: 10 μM conjugate, up to 90-120 min, live cells expressing HALOTAG
# Method: Binding kinetics to HALOTAG inside cells was measured by treating live cells expressing a HALOTAG protein with the BIRB* chloroalkane conjugates at a final concentration of 10 μM. After 0-120 minutes incubation time points, the medium was replaced with medium containing 5 μM HALOTAG TMR-fluorescent ligand, and the cells were incubated for additional 15 minutes allowing the TMR-fluorescent ligand to bind to the HALOTAG protein (which remained unbound). After the media was removed, the cells were lysed with a detergent lysis buffer, and the time points were analyzed as described above.
# Both conjugates were compared for binding kinetics to HALOTAG inside live cells and for bioactivity. Binding kinetics to HALOTAG inside cells was measured by treating live cells expressing a HALOTAG protein with the BIRB796 chloroalkane conjugates at a final concentration of 10 μM. […] Bands were quantitated, and the binding kinetics were determined as the percent binding with time relative to time zero when no chloroalkylated compound was added.
# Binding kinetics to HALOTAG inside cells (FIG. 23B) was measured by treating live cells, expressing a HALOTAG fusion protein, with the Ibrutinib chloroalkane conjugates at a final concentration of 10 μM for up to 90 minutes. […] Cells were then lysed with a detergent lysis buffer, and the samples at the various time points were analyzed as described above. […]
# purified ABL1 = purified ABL1 (Homo sapiens, UniProt P00519); test: Inhibition of purified ABL1 by ponatinib conjugates; assay type: biochemical
# Text: (§1) Two additional linkers were generated, one where the three other carbamates were replaced with amides, and the other where the two allyl carbamate groups were replaced with allyl ether linkages. […] The linkers were compared for their influence on binding to HALOTAG and ABL1 in biochemical and cellular assays.
# [6] = test system: STATS reporter expression; test: In-cell inhibition of STATS reporter expression by ponatinib conjugates; assay type: cell-based; conditions: cellular assay
# Text: as §1, with “CA-T4E contains 4 carbamate groups, one of them essential for rapid binding kinetics to HALOTAG. Two” for “Two”
# T1 sequence (Q06187 whole entry, species assumed, the tested form may be a part): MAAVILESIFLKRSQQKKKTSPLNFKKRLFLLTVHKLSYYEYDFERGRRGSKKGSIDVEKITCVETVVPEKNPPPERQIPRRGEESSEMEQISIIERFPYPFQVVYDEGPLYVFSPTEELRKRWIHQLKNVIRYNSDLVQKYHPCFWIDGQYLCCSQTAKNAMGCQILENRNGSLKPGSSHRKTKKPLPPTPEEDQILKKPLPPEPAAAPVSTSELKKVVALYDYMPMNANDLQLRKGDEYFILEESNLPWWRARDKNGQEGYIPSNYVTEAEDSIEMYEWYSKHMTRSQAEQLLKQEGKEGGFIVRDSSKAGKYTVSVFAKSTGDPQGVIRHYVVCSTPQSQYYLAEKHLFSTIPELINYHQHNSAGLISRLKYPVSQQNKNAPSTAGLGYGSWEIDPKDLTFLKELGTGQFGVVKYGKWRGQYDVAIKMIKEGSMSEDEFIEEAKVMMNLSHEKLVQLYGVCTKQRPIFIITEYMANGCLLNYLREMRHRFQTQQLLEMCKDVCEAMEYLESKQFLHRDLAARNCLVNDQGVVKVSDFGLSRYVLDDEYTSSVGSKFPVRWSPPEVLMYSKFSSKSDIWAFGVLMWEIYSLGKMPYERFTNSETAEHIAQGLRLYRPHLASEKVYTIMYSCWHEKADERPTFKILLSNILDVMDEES
# purified ABL1, sequence (P00519 whole entry, species assumed): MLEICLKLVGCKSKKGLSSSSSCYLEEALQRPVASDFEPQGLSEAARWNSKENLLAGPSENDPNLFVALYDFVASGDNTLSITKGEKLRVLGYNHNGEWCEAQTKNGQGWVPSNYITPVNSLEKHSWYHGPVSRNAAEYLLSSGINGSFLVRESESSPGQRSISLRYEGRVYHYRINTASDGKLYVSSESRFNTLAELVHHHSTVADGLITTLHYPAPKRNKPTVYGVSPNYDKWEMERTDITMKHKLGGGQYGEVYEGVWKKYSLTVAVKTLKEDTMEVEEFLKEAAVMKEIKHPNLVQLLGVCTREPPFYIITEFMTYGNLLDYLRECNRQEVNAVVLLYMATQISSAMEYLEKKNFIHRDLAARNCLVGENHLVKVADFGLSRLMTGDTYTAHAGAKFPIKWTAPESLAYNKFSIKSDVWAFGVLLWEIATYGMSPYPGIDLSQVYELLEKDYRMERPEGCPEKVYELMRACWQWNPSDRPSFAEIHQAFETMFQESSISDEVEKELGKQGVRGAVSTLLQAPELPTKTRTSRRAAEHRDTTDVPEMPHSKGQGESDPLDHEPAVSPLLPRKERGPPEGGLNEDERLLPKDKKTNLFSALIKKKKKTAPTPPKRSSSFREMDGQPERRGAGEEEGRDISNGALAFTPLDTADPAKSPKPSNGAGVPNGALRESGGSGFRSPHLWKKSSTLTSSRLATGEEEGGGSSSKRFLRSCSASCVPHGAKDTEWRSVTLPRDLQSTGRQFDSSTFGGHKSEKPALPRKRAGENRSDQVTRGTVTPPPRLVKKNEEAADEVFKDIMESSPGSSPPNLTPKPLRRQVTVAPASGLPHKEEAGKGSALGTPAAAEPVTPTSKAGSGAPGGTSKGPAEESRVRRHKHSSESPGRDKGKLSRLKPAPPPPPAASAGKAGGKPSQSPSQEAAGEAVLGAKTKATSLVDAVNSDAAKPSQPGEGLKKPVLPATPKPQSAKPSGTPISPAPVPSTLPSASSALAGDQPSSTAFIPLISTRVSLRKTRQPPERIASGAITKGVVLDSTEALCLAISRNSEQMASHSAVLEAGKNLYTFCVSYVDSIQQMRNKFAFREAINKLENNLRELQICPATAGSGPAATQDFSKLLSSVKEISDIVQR
Structure (SMILES),binding kinetics to HALOTAG in lysate (HALOTAG protein [1]),capture efficiency of BTK:NLuc (BTK:NLuc fusion [2]),also measured
CC(C)(C)c1cc(NC(=O)Nc2ccc(OCCN3CCOCC3)c3ccccc23)n(-c2cccc(CNC(=O)OC/C=C\COC(=O)NCCOCCOCCCCCCCl)c2)n1 [CA-T0],lower binding kinetics to HALOTAG,,
CC(C)(C)c1cc(NC(=O)Nc2ccc(OCCN3CCOCC3)c3ccccc23)n(-c2cccc(CNC(=O)OC/C=C/COC(=O)NCCOCCOCCOC(=O)NCCOCCOCCCCCCCl)c2)n1 [CA-T3E],faster binding to HALOTAG than respective linkers with a cis-double bond,,
CC(C)(C)c1cc(NC(=O)Nc2ccc(OCCN3CCOCC3)c3ccccc23)n(-c2cccc(CNC(=O)OC/C=C/COCCOC(=O)NCCOCCOCCCCCCCl)c2)n1 [CA-T2E],faster binding to HALOTAG than respective linkers with a cis-double bond,,
Nc1ncnc2c1c(-c1ccc(Oc3ccccc3)cc1)nn2[C@@H]1CCCN(C(=O)/C=C/CNC(=O)OC/C=C/COCCOC(=O)NCCOCCOCCCCCCCl)C1 [PBI-6027],,reduced capture efficiency relative to PBI-6040,
Nc1ncnc2c1c(-c1ccc(Oc3ccccc3)cc1)nn2[C@@H]1CCCN(C(=O)/C=C/CNC(=O)OC/C=C\COCCOC(=O)NCCOCCOCCCCCCCl)C1 [PBI-6025],,reduced capture efficiency relative to PBI-6040,
Nc1ncnc2c1c(-c1ccc(Oc3ccccc3)cc1)nn2[C@@H]1CCCN(C(=O)/C=C/CNC(=O)OC/C=C\COC(=O)NCCOCCOCCCCCCCl)C1 [PBI-6041],lower binding kinetics to HALOTAG,reduced capture efficiency relative to PBI-6040,release of NLuc by TEV proteolytic cleavage (BTK:NLuc fusion [3]): lower release
Nc1ncnc2c1c(-c1ccc(Oc3ccccc3)cc1)nn2[C@@H]1CCCN(C(=O)/C=C/CNC(=O)OC/C=C\COC(=O)NCCOCCOCCOC(=O)NCCOCCOCCCCCCCl)C1 [PBI-6030],,did not interfere with capture efficiency,
Nc1ncnc2c1c(-c1ccc(Oc3ccccc3)cc1)nn2[C@@H]1CCCN(C(=O)/C=C/CNC(=O)OC/C=C/COC(=O)NCCOCCOCCOC(=O)NCCOCCOCCCCCCCl)C1 [PBI-6029],,did not interfere with capture efficiency,
CC(C)(C)c1cc(NC(=O)Nc2ccc(OCCN3CCOCC3)c3ccccc23)n(-c2cccc(CNC(=O)OCCOCCOCCNC(=O)OC/C=C\COC(=O)NCCOCCOCCOC(=O)NCCOCCOCCCCCCCl)c2)n1 [CA-T4Z],,,inhibition of TNFα secretion (potency) [4]: potency similar to non-cleavable linker CA-T1
Cc1ccc(C(=O)Nc2ccc(CN3CCN(CCCNC(=O)CCOCCOCCC(=O)NC/C=C/CNC(=O)CCOCCOCCOC(=O)NCCOCCOCCCCCCCl)CC3)c(C(F)(F)F)c2)cc1C#Cc1cnc2cccnn12 [ponatinib-tri-amide],,,binding kinetics to HALOTAG inside live cells (cellular permeability) (HALOTAG protein [5]): reduced binding kinetics to intracellular HALOTAG; inhibition of purified ABL1 (purified ABL1): comparable inhibition of purified ABL1; decrease of ponatinib potency relative to CA-T4E and all PEG linkers [6]: 20 fold
CC(C)(C)c1cc(NC(=O)Nc2ccc(OCCN3CCOCC3)c3ccccc23)n(-c2cccc(CNC(=O)OCCOCCOCCNC(=O)OC/C=C/COC(=O)NCCOCCOCCOC(=O)NCCOCCOCCCCCCCl)c2)n1 [BIRB796-CA-T4E],faster binding to HALOTAG than respective linkers with a cis-double bond; also recorded: most similar to the non-cleavable linker CA-T1,,inhibition of TNFα secretion (potency) [4]: potency similar to non-cleavable linker CA-T1
